From publication PMC12035560, “Structures of Mycobacterium tuberculosis isoprenyl diphosphate synthase Rv2173 in substrate-bound forms” (Acta Crystallographica Section F: Structural Biology …, 2025)

Biological target: T1, Rv2173 (Mycobacterium tuberculosis, UniProt O53507)
T1 construct: gene idsA2
T1 sequence (O53507 whole entry): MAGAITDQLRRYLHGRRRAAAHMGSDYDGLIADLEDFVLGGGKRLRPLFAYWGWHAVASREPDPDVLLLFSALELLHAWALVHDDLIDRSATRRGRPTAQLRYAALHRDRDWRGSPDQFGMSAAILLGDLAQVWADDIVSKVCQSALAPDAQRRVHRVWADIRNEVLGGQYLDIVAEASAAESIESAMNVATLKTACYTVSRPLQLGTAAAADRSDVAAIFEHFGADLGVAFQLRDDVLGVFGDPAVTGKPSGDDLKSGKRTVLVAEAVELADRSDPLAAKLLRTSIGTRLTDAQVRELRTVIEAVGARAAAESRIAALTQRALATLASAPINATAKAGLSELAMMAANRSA

CC(C)=CCOP(=O)(O)OP(=O)(O)O [DMAPP]
X-ray crystal structure, 2.20 A, co-crystallization: Two metal ions bind to the FARM, coordinating to the DMAPP bound in the allylic/DMAPP site
